From PubChem BioAssay (NCI)
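The compound was tested at five concentrations on cells cultured in 96-well plates, with a 48-hour exposure period. At the GI50, growth is halved. At the TGI there is no net growth.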

How the values were obtained:
Experiment in all cases: growth of human tumour cells (NCI), 48 h
[1] = test system: UACC-62 melanoma
[2] = test system: CCRF-CEM leukemia
[3] = test system: OVCAR-4 ovarian
[4] = test system: SF-268 CNS
[5] = test system: SNB-19 CNS
[6] = test system: HOP-62 NSCLC
[7] = test system: HOP-92 NSCLC
[8] = test system: T-47D breast
[9] = test system: MDA-MB-231 breast
[10] = test system: BT-549 breast

Row | Structure (SMILES) | TGI [1] | TGI [2] | TGI [3] | TGI [4] | TGI [5] | TGI [6] | TGI [7] | GI50 [1] | GI50 [2] | GI50 [3] | GI50 [4] | GI50 [5] | GI50 [6] | GI50 [8] | TGI [8] | GI50 [7] | GI50 [9] | TGI [9] | TGI [10]
1 | C#CCN(C(=O)C(F)(F)F)c1ccc(C(=O)c2ccc(N(CC#C)C(=O)C(F)(F)F)cc2)cc1 | 54.1 µM | > 100 µM | > 100 µM | > 100 µM | > 100 µM | > 100 µM | 81 µM | – | – | – | – | – | – | – | – | – | – | – | –
2 | CN(/N=C/c1cccc2cccnc12)c1c([N+](=O)[O-])cc([N+](=O)[O-])cc1[N+](=O)[O-] | > 100 µM | – | > 100 µM | > 100 µM | > 100 µM | > 100 µM | > 100 µM | – | – | – | – | – | – | – | – | – | – | – | –
3 | O=C(CC(=O)c1cccc(Cl)c1)c1cccc(Cl)c1 | > 100 µM | > 100 µM | > 100 µM | > 100 µM | > 100 µM | > 100 µM | > 100 µM | 2.82 µM | 0.874 µM | 1.9 µM | 2.76 µM | 6.68 µM | 2.59 µM | 2.53 µM | > 100 µM | 1.95 µM | 2.67 µM | > 100 µM | –
4 | CCCCCCCC(=O)OCC(=O)[C@]1(O)Cc2c(O)c3c(c(O)c2[C@@H](OC2CC(N)C(O)C(C)O2)C1)C(=O)c1c(OC)cccc1C3=O (stereo partly drawn) | 0.494 µM | – | – | – | 1.25 µM | 1.74 µM | – | 0.033 µM | – | – | – | 0.0601 µM | 0.162 µM | 0.0512 µM | 1.2 µM | – | 0.578 µM | 2.17 µM | –
5 | O=C(N/N=C/c1cc(Cl)cc(Cl)c1[O-])c1ccccc1.O=C(N/N=C/c1cc(Cl)cc(Cl)c1[O-])c1ccccc1.[Co+2] | 51.6 µM | 19.6 µM | > 100 µM | – | > 100 µM | > 100 µM | 46.9 µM | 12.2 µM | 3.43 µM | 16.1 µM | – | 45 µM | 24.8 µM | – | – | 5.71 µM | – | – | –
6 | Oc1[nH]c2ccccc2c1N=Nc1c(F)c(F)c(F)c(F)c1F | > 100 µM | 16.5 µM | > 100 µM | > 100 µM | > 100 µM | > 100 µM | – | – | – | – | – | – | – | – | > 74.7 µM | – | – | > 100 µM | > 100 µM
7 | NCCCCCCNCc1cccc2ccccc12 | > 100 µM | – | > 100 µM | – | > 100 µM | > 100 µM | – | – | – | – | – | – | – | – | – | – | – | – | –
8 | O=C(C/C(CCC(=O)N(Cc1ccccc1)Cc1ccccc1)=N/Nc1ccc([N+](=O)[O-])cc1[N+](=O)[O-])c1ccccc1 | > 100 µM | > 100 µM | > 100 µM | > 100 µM | > 100 µM | > 100 µM | > 100 µM | – | – | – | – | – | – | – | – | – | – | – | –
9 | Cc1nc2sccn2c1C(=O)NC(=O)Nc1ccc(Cl)cc1 | > 100 µM | > 100 µM | > 100 µM | > 100 µM | > 100 µM | > 100 µM | 74.3 µM | – | – | – | – | – | – | – | – | – | – | – | –
10 | O=C(CCc1nnc2s/c(=C\c3ccccc3Cl)c(=O)n12)Nc1cc(Cl)ccc1Cl | > 100 µM | > 100 µM | > 100 µM | > 100 µM | > 100 µM | > 100 µM | > 100 µM | – | – | – | – | – | – | – | – | – | – | – | –
11 | S=C=NCCc1ccccc1 | 2.52 µM | 4.25 µM | 6.33 µM | 3.65 µM | 7.85 µM | 1.35 µM | – | – | – | – | – | – | – | – | – | – | – | – | –
